The results in this text go back to publication PMC10913476, “A high-throughput target-based screening approach for the identification and assessment of Mycobacterium tuberculosis mycothione reductase inhibitors” (Microbiology Spectrum, 2024).

In general, CC50 refers to the concentration that lowers cell viability or growth by half. Read a low CC50 as greater toxicity to the cells.

Series [1] has as its target Mycobacterium tuberculosis mycothione reductase (MtrMtb) (Mycobacterium tuberculosis, UniProt P9WHH3). Description: MtrMtb luminescence-coupled enzymatic assay, confirmation screen (11-point dose-response). Type of series: biochemical.
The subject of a further series is Mtb H37Ra^lux. Description: microbe, parasite or virus in culture. In kind it is cell-based, Mycobacterium tuberculosis. The conditions noted are these: for MIC50: Mycobacterium tuberculosis, H37RA.
Series [2] concerns Mtb H37Ra^lux in RAW264.7 murine macrophages. Put plainly: microbe, parasite or virus in culture. The conditions noted are these: for MIC50: Mycobacterium tuberculosis, H37RA, 60 h. In kind it is cell-based, Mycobacterium tuberculosis.
Series [3] is described as follows: RAW264.7 cytotoxicity (CellTiter-Glo). In kind it is cell-based, murine. The conditions noted are these: mouse, RAW264.7 macrophage-like cells. On the procedure: The RAW264.7 cell line was cultured in DMEM supplemented with 10% FBS, 2-mM L-glutamine, 100-U/mL penicillin and 100-µg/mL streptomycin at 37°C and 5% CO2. Cells were seeded on black, clear-bottom 96-well plates at 2.5 × 10^5 cells/mL. Test compounds and reference compounds (BDQ and tamoxifen) were added in nine twofold serial dilutions in 100% DMSO with a top concentration of 25 µM. The plate setup included high (no growth inhibition) and low (100% growth inhibition) controls in columns 12 and 1, respectively. Medium without cell suspension was added to the low control wells. Final DMSO concentration reached 1% for test and control wells. Plates were incubated for 60 hours at 37°C and 5% CO2. Before adding the readout reagent, plates were equilibrated at room temperature for 30 min. The CellTiter-Glo version 2.0 Assay (Promega, cat. #G7572) was then added to test wells in a 1:1 ratio and mixed for 2 min on an orbital shaker. The plate was incubated for 10 min at RT to stabilize the luminescent signal. The luminescence was recorded using Glomax Discover microplate reader (Promega). Cell viability was determined by normalization of the recorded signal and establishment of the 50% cytotoxicity concentration based on the non-linear regression curve analysis (GraphPad Prism version 9). The assay was performed in duplicate in two independent experiments.
(In general: In ATP-based viability assays light output follows the ATP content of the culture.)

Where [4] appears, read: morpholine series, average IC50 in the confirmation screen (dose-response), unit not in this head, µM, read-out: qIC50 (MtrMtb).
Setting [5] is: read-out: MIC50 (Mtb H37Ra^lux).
The mark [6] stands for this setting: read-out: RAW264.7 MIC50 (Mtb H37Ra^lux).
Where [7] appears, read: morpholine series, acute cellular toxicity, unit not in this head.
Where [8] appears, read: sulfonylamine series, fragment molecules, reference compounds, read-out: IC50 (µM) MtrMtb.
[9] abbreviates: read-out: MIC50 (µM) Mtb H37Ra^lux.
Where [10] appears, read: sulfonylamine series, fragment molecules, reference compounds.
Where [11] appears, read: read-out: RAW264.7 MIC50 (µM) (Mtb H37Ra^lux).

In brackets after ≈: the same amount, converted by molar mass. Where two headings read alike, the source gives them in different places.

Chain of Mycobacterium tuberculosis mycothione reductase (MtrMtb) (P9WHH3 whole entry): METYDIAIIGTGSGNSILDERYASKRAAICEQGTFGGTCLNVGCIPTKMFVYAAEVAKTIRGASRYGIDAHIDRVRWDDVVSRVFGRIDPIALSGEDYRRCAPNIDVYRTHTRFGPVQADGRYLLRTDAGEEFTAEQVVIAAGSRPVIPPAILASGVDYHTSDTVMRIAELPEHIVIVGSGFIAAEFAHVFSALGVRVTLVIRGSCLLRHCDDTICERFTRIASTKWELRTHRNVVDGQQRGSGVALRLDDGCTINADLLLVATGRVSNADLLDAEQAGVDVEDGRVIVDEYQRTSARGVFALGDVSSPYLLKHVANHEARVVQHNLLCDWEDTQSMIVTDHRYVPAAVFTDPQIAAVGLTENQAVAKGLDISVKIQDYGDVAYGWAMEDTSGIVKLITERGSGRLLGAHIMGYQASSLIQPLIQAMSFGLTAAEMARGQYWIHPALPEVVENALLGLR

With `C[C@H]1COCCN1c1nc2c(c(-c3csc4ccccc34)n1)CCNCC2` [Respiri-1093], the IC50 in series [1] (setting [4]) amounted to 6.22 µM. Moreover, in the series on Mtb H37Ra^lux, the “anti-mycobacterial activity in whole-cell assay (Mtb H37Ra^lux MIC50), in words” value (from here on “anti-mycobacterial activity”) is given as “activity”. Also, the values for the MIC50 (in the series with Mtb H37Ra^lux (setting [5]); in series [2] (setting [6])) were 9.94 µM (≈ 3.78 µg/mL) and greater than 25 µM, respectively. The CC50 at 60 h in series [3] (setting [7]) is greater than 25 µM.
Consider `CCN(CC)c1cc(Oc2ccc(NS(=O)(=O)c3ccc(C)cc3)c(C(=O)O)c2)ccc1NS(=O)(=O)c1ccc(C)cc1` [Respiri-1180], for which the IC50 in series [1] (setting [8]) came to 2.38 µM. Moreover, the MIC50 with Mtb H37Ra^lux (setting [9]) was greater than 25 µM. The CC50 at 60 h in series [3] (setting [10]) is greater than 50 µM.
Turning to `C[C@H]1COCCN1c1cc(-c2cc3ccccc3s2)c2c(n1)CCNCC2` [Respiri-1084], the IC50 in series [1] (setting [4]) was 2.88 µM. The MIC50 is greater than 25 µM in the series with Mtb H37Ra^lux (setting [5]) and 10.2 µM (≈ 3.88 µg/mL) in series [2] (setting [6]). Besides, the “intracellular activity in macrophage infection assay, in words” value (shortened to “intracellular activity”) in series [2] is recorded as “Intracellular activity was detected”. In series [3] (setting [7]), this molecule displayed a CC50 at 60 h of 11.9 µM.
As for `CNc1cc(Oc2ccc(NS(=O)(=O)c3ccc(C)cc3)c(C(=O)O)c2)ccc1NS(=O)(=O)c1ccc(C)cc1` [Respiri-1075], the MIC50 (in the series on Mtb H37Ra^lux (setting [9]); in series [2] (setting [11])) was greater than 25 µM each time.
`C[C@H]1COCCN1c1nc2c(c(-c3ccc4ccccc4c3)n1)CCNCC2` [Respiri-1082]: the IC50 in series [1] (setting [4]) is 3.03 µM. Besides, the “anti-mycobacterial activity” value with Mtb H37Ra^lux is “activity”. Moreover, the MIC50 in the series on Mtb H37Ra^lux (setting [5]) amounted to 4.02 µM (≈ 1.51 µg/mL); in series [2] (setting [6]), 7.16 µM (≈ 2.68 µg/mL). Moreover, the “intracellular activity” value in series [2] was “Intracellular activity was detected”. The same molecule displayed a CC50 at 60 h in series [3] (setting [7]) of 9.69 µM.
For `CCNc1cc(Oc2ccc(NS(=O)(=O)c3ccc(C)cc3)c(C(=O)O)c2)ccc1NS(=O)(=O)c1ccc(C)cc1` [Respiri-1031], the IC50 in series [1] (setting [8]) was found to be 2.16 µM. The MIC50 (in the series on Mtb H37Ra^lux (setting [9]); in series [2] (setting [11])) was greater than 25 µM throughout.
Regarding `C[C@H]1COCCN1c1nc2c(c(-c3ccc4c(c3)OCO4)n1)CCNCC2` [Respiri-1080], the IC50 in series [1] (setting [4]) was found to be 5.98 µM. The MIC50 (in the series with Mtb H37Ra^lux (setting [5]); in series [2] (setting [6])) was greater than 25 µM throughout. This molecule also gave a CC50 at 60 h in series [3] (setting [7]) greater than 5 µM.
Regarding `C[C@H]1COCCN1c1nc2c(c(-c3ccc4ncccc4c3)n1)CCNCC2` [Respiri-1081], the IC50 in series [1] (setting [4]) is 3.75 µM. Besides, the MIC50 (in the series on Mtb H37Ra^lux (setting [5]); in series [2] (setting [6])) was greater than 25 µM each time. The molecule further displayed a CC50 at 60 h in series [3] (setting [7]) greater than 25 µM.
As for `CCCNc1cc(Oc2ccc(NS(=O)(=O)c3ccc(C)cc3)c(C(=O)O)c2)ccc1NS(=O)(=O)c1ccc(C)cc1` [Respiri-1179], the IC50 in series [1] (setting [8]) was 1.13 µM. The MIC50 (in the series on Mtb H37Ra^lux (setting [9]); in series [2] (setting [11])) was greater than 25 µM throughout. In series [3] (setting [10]), this molecule had a CC50 at 60 h greater than 50 µM.
Turning to `C[C@H]1COCCN1c1nc2c(c(-c3ccnc4ccccc34)n1)CCNCC2` [Respiri-1083], the IC50 in series [1] (setting [4]) stood at 2.34 µM. For the same molecule, the MIC50 (in the series on Mtb H37Ra^lux (setting [5]); in series [2] (setting [6])) was greater than 25 µM in each case. In series [3] (setting [7]), the CC50 at 60 h was greater than 25 µM.
As for `O=C1C=CC(=O)N1Cc1ccc2c(c1)OCO2` [Respiri-1208], in series [1] (setting [8]), the IC50 worked out at 4.83 µM. For the same molecule, the MIC50 in the series on Mtb H37Ra^lux (setting [9]) is greater than 25 µM. For the same molecule, in series [3] (setting [10]), the CC50 at 60 h amounted to 15.2 µM.
Turning to `CCCCNc1cc(Oc2ccc(NS(=O)(=O)c3ccc(C)cc3)c(C(=O)O)c2)ccc1NS(=O)(=O)c1ccc(C)cc1` [Respiri-1181], the IC50 in series [1] (setting [8]) stood at 1.66 µM. Moreover, the MIC50 (with Mtb H37Ra^lux (setting [9]); in series [2] (setting [11])) was greater than 25 µM in each case. The molecule further returned a CC50 at 60 h in series [3] (setting [10]) greater than 50 µM.
The molecule `CC/C(=C(\c1ccccc1)c1ccc(OCCN(C)C)cc1)c1ccccc1` [Tamoxifen, reference compound] yielded a CC50 at 60 h in series [3] (setting [10]) of 4.54 µM.
As to `COc1nc2ccc(Br)cc2cc1[C@@H](c1ccccc1)[C@@](O)(CCN(C)C)c1cccc2ccccc12` [Bedaquiline, reference compound], in the series with Mtb H37Ra^lux (setting [9]), the MIC50 is 0.01 µM (≈ 0.00556 µg/mL). The same molecule had a CC50 at 60 h in series [3] (setting [10]) greater than 50 µM.
With `C[C@H]1COCCN1c1nc2c(c(-c3cc4ccccc4o3)n1)CCNCC2` [Respiri-1079], the IC50 in series [1] (setting [4]) is 1.99 µM. In addition, the “anti-mycobacterial activity” value in the series with Mtb H37Ra^lux was “activity”. Moreover, the MIC50 in the series on Mtb H37Ra^lux (setting [5]) amounted to 5.7 µM (≈ 2.08 µg/mL); in series [2] (setting [6]) it was 12.2 µM (≈ 4.44 µg/mL). Moreover, the “intracellular activity” value in series [2] is given as “Intracellular activity was detected”. The molecule further returned a CC50 at 60 h in series [3] (setting [7]) of 11 µM.
Regarding `C[C@H]1COCCN1c1nc2c(c(-c3ccc(F)cc3)n1)CCNCC2` [Respiri-1077], the MIC50 (in the series with Mtb H37Ra^lux (setting [5]); in series [2] (setting [6])) was greater than 25 µM each time. In addition, the CC50 at 60 h in series [3] (setting [7]) was greater than 25 µM.
With `C[C@H]1COCCN1c1nc2c(c(-c3ccc(Cl)cc3)n1)CCNCC2` [Respiri-1078], the IC50 in series [1] (setting [4]) was 4.47 µM. For the same molecule, in the series with Mtb H37Ra^lux, the “anti-mycobacterial activity” value is “activity”. For the same molecule, the MIC50 in the series on Mtb H37Ra^lux (setting [5]) came to 11.9 µM (≈ 4.26 µg/mL); in series [2] (setting [6]) it was 14.1 µM (≈ 5.05 µg/mL). Further, the “intracellular activity” value in series [2] is recorded as “Intracellular activity was detected”. In series [3] (setting [7]), this molecule registered a CC50 at 60 h of 13.7 µM.
With `Cc1ccn(-c2ncccn2)c(=O)c1C#N` [Respiri-1211], in series [1] (setting [8]), the IC50 came out at 13 µM. The MIC50 (with Mtb H37Ra^lux (setting [9]); in series [2] (setting [11])) was greater than 25 µM throughout. In series [3] (setting [10]), this molecule gave a CC50 at 60 h greater than 50 µM.
Turning to `COc1cccc(-c2nc(N3CCOC[C@@H]3C)nc3c2CCNCC3)c1` [Respiri-1076], the MIC50 (with Mtb H37Ra^lux (setting [5]); in series [2] (setting [6])) was greater than 25 µM each time. This molecule showed a CC50 at 60 h in series [3] (setting [7]) greater than 25 µM.
With `Cn1ccnc1C(=O)c1nccn1C` [Respiri-1210], in series [1] (setting [8]), the IC50 was found to be 6.11 µM. Further, the MIC50 (in the series on Mtb H37Ra^lux (setting [9]); in series [2] (setting [11])) was greater than 25 µM each time. Also, in series [3] (setting [10]), the CC50 at 60 h is greater than 50 µM.
`CN1C(=O)C2N=CNC2N(C)C1=O` (centres unmarked) [Respiri-1209]: in series [1] (setting [8]), the IC50 is 5.63 µM. Further, the MIC50 (in the series with Mtb H37Ra^lux (setting [9]); in series [2] (setting [11])) was greater than 25 µM each time. For the same molecule, the CC50 at 60 h in series [3] (setting [10]) was greater than 50 µM.
